Results: patent publication US20240165120A1, “TREATING CANCER IN PATIENT HAVING CO-OCCURRING GENETIC ALTERATION IN FGFR2 AND A CANCER DRIVER GENE” (TAIHO PHARMACEUTICAL CO., LTD., priority 2021, published 2024)

Experiments:
[1] = Crystal form oral absorbability; conditions: crystal forms defined by XRPD peaks
Crystal form stability = conditions: crystal forms defined by XRPD peaks
advanced iCCA = conditions: 1st line; patients with advanced iCCA; cited from earlier work

Row | Compound | oral absorbability [1] | stability (Crystal form stability) | overall survival (advanced iCCA)
1 | C=CC(=O)N1CC[C@H](n2nc(C#Cc3cc(OC)cc(OC)c3)c3c(N)ncnc32)C1 [Compound (1), (S)-1-[(3)-[4-amino-3-[(3,5-dimethoxyphenyl)ethynyl]-1H-pyrazolo[3,4-d]pyrimidin-1-yl]-1-pyrrolidinyl]-2-propen-1-one] | excellent oral absorbability | good stability | –
2 | Gemcitabine-cisplatin | – | – | 1 year
